Experimental data: US20230203045A1, “INHIBITORS OF NEK7 KINASE” (Halia Therapeutics, Inc., priority 2020, published 2023)

What follows are compounds tested on IL-1β release (assay: IL-1β Release Assay). Settings: Homo sapiens; PMA-differentiated THP-1 cells, 250 ng/mL LPS then 20 μM nigericin; cleaved IL-1β in media; read-out: I1-1β release IC50.
Type: cell-based
Experimental: Approximately 1.5 million THP-1 cells were plated in each well of a 6-well TC plate and incubated with 40 nM PMA in RPMI (10% FBS, 1% Penstrep) for 24 hours. The media was then removed and cells were rested in RPMI (10% FBS, 1% Penstrep) for 24 hours after which time the media was removed and cells were pre-treated for 2 hours with various concentrations of compounds of interest (typically serial 3-fold dilution in RPMI+5% FBS, concentrations ranging from 1 μM to 0.5 nM) in RPMI (5% FBS). The media was again removed and cells were incubated with 250 ng/mL LPS and compounds of interest (concentrations as above) in RMPI (5% FBS) for 2 hours. The media was removed for a last time and cells were incubated with 20 μM nigericin and compounds of interest (concentrations as above) in Opti-MEM for 30 minutes. Cell media was then collected and the amount of cleaved IL-1β was determined using a JESS instrument (Protein Simple) and standard protocols. Cleaved Il-1β antibody was obtained from Cell Signaling (catalogue #83186S) and was used at 1:20 dilution in antibody diluent 2. Protein Simple 1× anti-Rabbit HRP secondary antibody was used along with Protein Simple luminol and peroxide for chemiluminescent detection. Primary antibody incubation time was increased from 30 minutes to 60 minutes.

Row | IC50 [µM] | Compound
1 | 0.051 to 0.2 | Nc1ncnc2c1c(-c1ccc(NC(=O)Nc3cc(C4(C(F)(F)F)CC4)on3)c(F)c1)nn2C1CC1 [Example 25, 1-(4-(4-amino-1-cyclopropyl-1H-pyrazolo[3,4-d]pyrimidin-3-yl)-2-fluorophenyl)-3-(5-(1-(trifluoromethyl)cyclopropyl)isoxazol-3-yl)urea]
2 | < 0.05 | CC(C)(C)c1cc(NC(=O)Nc2ccc(-c3nn(C4CC4)c4ncnc(N)c34)cc2F)on1 [Example 13, 1-(4-(4-amino-1-cyclopropyl-1H-pyrazolo[3,4-d]pyrimidin-3-yl)-2-fluorophenyl)-3-(3-(tert-butyl)isoxazol-5-yl)urea]
3 | 0.201 to 0.5 | CC(C)(C)c1nnc(NC(=O)Nc2ccc(-c3nn(C4CC4)c4ncnc(N)c34)cc2F)s1 [Example 33, 1-(4-(4-amino-1-cyclopropyl-1H-pyrazolo[3,4-d]pyrimidin-3-yl)-2-fluorophenyl)-3-(5-(tert-butyl)-1,3,4-thiadiazol-2-yl)]
4 | < 0.05 | Nc1ncnc2c1c(-c1ccc(NC(=O)Nc3cc(C4(C(F)(F)F)CC4)no3)c(F)c1)nn2C1CC1 [Example 21, 1-(4-(4-amino-1-cyclopropyl-1H-pyrazolo[3,4-d]pyrimidin-3-yl)-2-fluorophenyl)-3-(3-(1-(trifluoromethyl)cyclopropyl)isoxazol-5-yl)urea]
5 | 0.051 to 0.2 | CC1(c2cc(NC(=O)Nc3ccc(-c4nn(C5CC5)c5ncnc(N)c45)cc3F)on2)CC1 [Example 32, 1-(4-(4-amino-1-cyclopropyl-1H-pyrazolo[3,4-d]pyrimidin-3-yl)-2-fluorophenyl)-3-(3-(1-methylcyclopropyl)isoxazol-5-yl)]
6 | < 0.05 | CC(C)(C)c1cc(NC(=O)Nc2ccc(-c3nn(C4CC4)c4ccnc(N)c34)cc2F)on1 [Example 30, 1-(4-(4-amino-1-cyclopropyl-1H-pyrazolo[4,3-c]pyridin-3-yl)-2-fluorophenyl)-3-(3-(tert-butyl)isoxazol-5-yl)urea]
7 | < 0.05 | CC(C)(C)c1cc(NC(=O)Nc2ccc(-c3nn(C4CCN(C5COC5)CC4)c4ncnc(N)c34)cc2F)on1 [Example 14, 1-(4-(4-amino-1-(1-(oxetan-3-yl)piperidin-4-yl)-1H-pyrazolo[3,4-d]pyrimidin-3-yl)-2-fluorophenyl)-3-(3-(tert-butyl)isoxazol-5-yl)urea]
8 | 0.051 to 0.2 | Nc1nccc2c1c(-c1ccc(NC(=O)Nc3cc(C4(C(F)(F)F)CC4)no3)c(F)c1)nn2C1CC1 [Example 45, 1-(4-(4-amino-1-cyclopropyl-1H-pyrazolo[4,3-c]pyridin-3-yl)-2-fluorophenyl)-3-(3-(1-(trifluoromethyl)cyclopropyl)isoxazol-5-yl)urea]
9 | 0.051 to 0.2 | CC(C)(C)c1cc(NC(=O)Nc2ccc(-c3nn(C4COC4)c4ncnc(N)c34)cc2F)on1 [Example 12, 1-(4-(4-amino-1-(oxetan-3-yl)-1H-pyrazolo[3,4-d]pyrimidin-3-yl)-2-fluorophenyl)-3-(3-(tert-butyl)isoxazol-5-yl)urea]

Each compound was assayed against T1, full-length recombinant human NEK7 (Homo sapiens, UniProt Q8TDX7) (assay: NEK7 Enzymatic Assay). Settings: casein substrate, [33P]-ATP, 2 hours at room temperature.
T1 construct: full-length recombinant human NEK7; GST (N); purchased SignalChem Nab 09-10G; host or cells: Sf9 insect cells (baculovirus)
T1 sequence (Q8TDX7 whole entry): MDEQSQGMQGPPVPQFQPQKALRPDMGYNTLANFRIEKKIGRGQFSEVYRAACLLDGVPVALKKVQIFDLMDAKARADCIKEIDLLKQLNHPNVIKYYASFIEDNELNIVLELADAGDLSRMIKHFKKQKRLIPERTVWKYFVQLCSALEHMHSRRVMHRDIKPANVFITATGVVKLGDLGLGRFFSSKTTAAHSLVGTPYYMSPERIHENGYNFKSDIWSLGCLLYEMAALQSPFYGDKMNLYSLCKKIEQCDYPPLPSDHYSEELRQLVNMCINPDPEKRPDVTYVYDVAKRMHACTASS
Type: biochemical
Experimental: Casein substrate (from bovine milk, hydrolyzed and partially dephosphorylated mixture of α, β and κ caseins, obtained from Sigma Aldrich, catalogue #C4765, diluted in distilled water to a final concentration of 1 mg/mL) and full-length recombinant human NEK7 (expressed by baculovirus in Sf9 insect cells using a N-terminal GST tag, obtained from SignalChem, catalogue #Nab 09-10G, 0.1 μg/μL) were mixed in assay buffer (20 mM Hepes pH 7.5, 10 mM MgCl2, 1 mM EGTA, 0.02% Brij35, 0.02 mg/ml BSA, 0.1 mM Na3VO4, 2 mM DTT, 1% DMSO). Compounds of interest (serial 3-fold dilution in DMSO from 10 μM to 0.5 nM) or vehicle (1% DMSO) were dispensed into the kinase reaction mixture by Acoustic technology (Echo550; nanoliter range). After incubation at room temperature for 20 minutes, the kinase reaction was initiated by addition of [^33P]-ATP (specific activity 10 μCi/μl) and the mixture was incubated at room temperature for 2 hours. The reaction was then stopped by spotting the reaction mixture on strips of phosphocellulose P81 paper. Following washing, the radioactivity of the P81 paper was measured and kinase activity data were expressed as the percent remaining kinase activity in test samples compared to vehicle reactions. IC50 values and curve fits were obtained using Prism (GraphPad Software).

Row | IC50 [µM] | Compound
10 | > 0.501 | CC(C)(C)c1nnc(NC(=O)Nc2ccc(-c3nn(C4CC4)c4ncnc(N)c34)cc2F)s1 [Example 33, 1-(4-(4-amino-1-cyclopropyl-1H-pyrazolo[3,4-d]pyrimidin-3-yl)-2-fluorophenyl)-3-(5-(tert-butyl)-1,3,4-thiadiazol-2-yl)]
11 | 0.151 to 0.3 | COCCn1nc(-c2ccc(NC(=O)Nc3cc(C4(C(F)(F)F)CC4)on3)c(F)c2)c2c(N)ncnc21 [Example 58, 1-(4-(4-amino-1-(2-methoxyethyl)-1H-pyrazolo[3,4-d]pyrimidin-3-yl)-2-fluorophenyl)-3-(5-(1-(trifluoromethyl)cyclopropyl)isoxazol-3-yl)urea]
12 | > 0.501 | CC(C)(F)c1cc(NC(=O)Nc2ccc(-c3nn(C4CC4)c4ncnc(N)c34)cc2F)on1 [Example 27, 1-(4-(4-amino-1-cyclopropyl-1H-pyrazolo[3,4-d]pyrimidin-3-yl)-2-fluorophenyl)-3-(3-(2-fluoropropan-2-yl)isoxazol-5-yl)urea]
13 | > 0.501 | CC(C)n1nc(-c2ccc(NC(=O)Nc3cc(C(C)(C)C)no3)c(Cl)c2)c2c(N)ncnc21 [Example 6, 1-(4-(4-amino-1-isopropyl-1H-pyrazolo[3,4-d]pyrimidin-3-yl)-2-chlorophenyl)-3-(3-(tert-butyl)isoxazol-5-yl)urea]
14 | 0.151 to 0.3 | CC(C)(O)Cn1nc(-c2ccc(NC(=O)Nc3cc(C4(C(F)(F)F)CC4)no3)c(F)c2)c2c(N)ncnc21 [Example 66, 1-(4-(4-amino-1-(2-hydroxy-2-methylpropyl)-1H-pyrazolo[3,4-d]pyrimidin-3-yl)-2-fluorophenyl)-3-(3-(1-(trifluoromethyl)cyclopropyl)isoxazol-5-yl)urea]
